# Results published in US9014457B2, “Quantifying cell death” (UCL Business PLC, priority 2009, dated 2015).
# Entries after “also recorded” stand apart in the source; their conditions may differ.
# Key:
# neuronal cells = settings: cited from earlier work
# Cyclophilin D = test: Histological cross sections of retina stained for Cyclophilin D, OHT rat eyes; format: in vivo
# [1] = in vivo; cited from earlier work
# RGC apoptosis = test: DARC in vivo imaging of OHT rat eyes, topical CoQ10; settings: topical on Day 0, 1, 7, 21 & 42; at 3 & 6 weeks after elevated IOP; vs control
# From the text: FIG. 14B DARC in vivo imaging of OHT rat eyes at 3 weeks after elevated intraocular pressure (IOP) showing increased RGC apoptosis (white spots) in Control (A) compared to CoQ10-treated (B) eyes.
Structure (SMILES),"cell viability, development or basic cellular physiological properties (neuronal cells)","Cyclophilin D (CyD) in retina, histological grading (Cyclophilin D; 3 weeks after induction of OHT)","Cyclophilin D (CyD) in retina, histological grading (Cyclophilin D; 12 weeks after elevated IOP)",neuroprotection [1],RGC apoptosis (RGC apoptosis)
"CCCCCCCCCCCCCCCCCCN1C(=CC=CC2=[N+](CCCCCCCCCCCCCCCCCC)c3ccccc3C2(C)C)C(C)(C)c2ccccc21.[O-][Cl+3]([O-])([O-])[O-] [DiI, 1,1′-dioctadecyl-3,3,3′,3′-tetramethylindocarbocyanine perchlorate]",does not affect,,,,
"COC1=C(OC)C(=O)C(C/C=C(\C)CC/C=C(\C)CC/C=C(\C)CC/C=C(\C)CC/C=C(\C)CC/C=C(\C)CC/C=C(\C)CC/C=C(\C)CC/C=C(\C)CCC=C(C)C)=C(C)C1=O [CoQ10, Ubiquinone]",,increased; also recorded: significant increase,not at 12 weeks,highly effective,significantly reduced
